Laboratory results published in patent EP0212605A2, “Azolyl-cyclopropyl-ethanol derivatives, processes for their preparation and their use” (HOECHST AKTIENGESELLSCHAFT, priority 1985, dated 1987).

System: Candida albicans
Experiment: Oral and parenteral in vivo efficacy in mice experimentally infected with Candida albicans (survival time)
Parameters: species or system Mäusen (Stamm HOE: NMRKF; SPF 71)
Settings: for d̄ Tage: mean survival time of 5 mice; for Überlebenszeit in % (Standardpräp.= 100%): relative to Ketoconazol = 100%
Method: Zur Feststellung der oralen und parenteralen Wirksamkeit wurden Gruppen von je 5 18-20 g schweren Mäusen (Stamm HOE: NMRKF; SPF 71) mit 2 . 10^6 Keimen/Tier infiziert.
Die Behandlung der Tiere erfolgte oral bzw. subcutan in 8 gleichen Einzeldosen zu je 30 mg/kg bzw. 10 mg/kg Körpergewicht (-24/-18/-2h/+2/24/30/48/54h).
Neben der mit den erfindungsgemäßen Substanzen I behandelten Gruppe von 5 Tieren wurde zum Vergleich eine Gruppe von ebenfalls 5 Tieren mit der Referenzsubstanz Ketoconazol behandelt. Eine kontrollgruppe von 10 Tieren blieb nach der Infektion unbehandelt.

| SMILES | d̄ Tage (Oral 8x10 mg/kg) | Überlebenszeit in % (Standardpräp.= 100%) (Oral 8x10 mg/kg) | d̄ Tage (Oral 8x30 mg/kg) | Überlebenszeit in % (Standardpräp.= 100%) (Oral 8x30 mg/kg) | d̄ Tage (Subcutan 8x10 mg/kg) | Überlebenszeit in % (Standardpräp.= 100%) (Subcutan 8x10 mg/kg) | d̄ Tage (Subcutan 8x30 mg/kg) | Überlebenszeit in % (Standardpräp.= 100%) (Subcutan 8x30 mg/kg) |
| --- | --- | --- | --- | --- | --- | --- | --- | --- |
| CC(=O)N1CCN(c2ccc(OCC3COC(Cn4ccnc4)(c4ccc(Cl)cc4Cl)O3)cc2)CC1 (centres unmarked) [Ketoconazol, reference compound] | 5,6 Tage | 100,0% | 8,0 Tage | 100,0% | 6,4 Tage | 100,0% | 8,0 Tage | 100,0% |
| OC(Cn1cncn1)(c1ccc(Cl)cc1)C1CC1c1ccc(Cl)cc1 (single isomer, unassigned) [34 b] | 11,6 Tage | 207,1% | 13,0 Tage | 162,5% | 11,0 Tage | 171,9% | 8,0 Tage | 100,0% |
| OC(Cn1cncn1)(c1ccc(Cl)cc1Cl)C1CC1c1ccc(Cl)cc1 (single isomer, unassigned) [29 a] | 6,8 Tage | 121,4% | 9,8 Tage | 122,5% | 7,2 Tage | 112,5% | 11,4 Tage | 142,5% |
| OC(Cn1cncn1)(c1ccc(F)cc1)C1CC1c1ccc(Cl)cc1Cl (single isomer, unassigned) [27 b] | 9,2 Tage | 164,3% | 11,6 Tage | 145,0% | 10,4 Tage | 162,5% | 12,6 Tage | 157,5% |
